Laboratory results: patent publication US7563805B2, “Tri-, tetra-substituted-3-aminopyrrolidine derivative” (Daiichi Pharmaceutical Co., Ltd., priority 2005, dated 2009)
Values after ≈ are worked out from the molar mass of the structure shown. Read-outs that look alike come from different tables or passages of the source.

How the values were obtained:
[1] = rat, in vivo, po, 5 mg/kg
Method: (§1) The Comparative compound was also evaluated by the same procedure.
(§2) The test substance was orally administered to fasted rats (7 week old male Crj:CD IGS rats purchased from Charles River Laboratories Japan, Inc.) at a dose of 5 mg/kg.
(§3) Animals of absorption test group (3 animals per group) were sacrificed by bleeding under etherization at 0.25, 0.5, 1, 2, 4, and 8 hours after the drug administration, and blood, lever, kidney, and lung were collected. The blood was centrifuged (3000 rpm×15 minutes, 4° C.) after coagulation to collect serum. Tissue was homogenized after adding 3 to 5 mL of 0.1 mol/l phosphate buffer (pH 7.0), and the supernatant was collected from the homogenate (3000 rpm×15 minutes, 4° C.).
(§4) Animals of excretion test group (3 animals per group) were placed in a metabolic cage, and the urine of 0 to 4 hours and 4 to 24 hours after the administration was collected in a water-cooled container. Simultaneously with the collection of the urine, the cage was also washed with about 15 mL of 0.1 mol/l phosphate buffer (pH 7.0) to collect the urine attached to the cage. For evaluation of conjugates such as glucuronide, the collected sample was also aliquoted and hydrolyzed with an equal amount of 1 mol/l aqueous solution of sodium hydroxide, and the hydrolysate was neutralized with 0.5 mol/l hydrochloric acid and measured for its concentration. The concentration was measured by LC-MS/MS method.
(§5) Pharmacokinetic parameters of the each drug in rat were calculated by from the time course of the average concentration by using pharmacokinetic analysis software PSAG-CP (AS Medica Inc.) in a manner not dependent on the model animal.

[2] = tested on: bone marrow cells (polychromatic erythrocytes); assay: mouse bone marrow micronucleus test; type: in vivo, Slc:ddY male mice; settings: in vivo
Method: The control was 0.1 mol/l NaOH/physiological saline solvent, and the positive control was cyclophosphamide (cyclophoshamide, CP) dissolved and diluted in physiological saline. All samples were sterilized by filtering through Milex GS filter (0.22 μm). Each solution was intravenously administered at a dose of 10 mL/kg in single dose at an administration rate of 0.2 mL/min.
Bone marrow cells were collected from thigh bone at 24 hours after the administration, and smear preparation was prepared. After staining with acridine orange, 1000 polychromatic erythrocytes per animal were observed under fluorescence microscope to count frequency of micrronucleated polychromatic erythrocyte and ratio of the orthochromatic erythrocytes to the polychromatic erythrocyte in 1000 erythrocytes.

P. aeruginosa, 32104 = assay: antibacterial activity (MIC), standard method of Japanese Society of Chemotherapy
[3] = tested on: S. pneumoniae, J24 (penicillin-intermediate resistant bacteria); assay: as above
S. aureus, 209P = assay: as above
P. aeruginosa, 32121 = assay: as above
hERG K+ channel [4] = target: T1, hERG K+ channel (Homo sapiens, UniProt Q12809)
E. faecalis, ATCC 19433 = assay: antibacterial activity (MIC), standard method of Japanese Society of Chemotherapy
S. epidermidis, 56500 = assay: as above
[5] = type: in vivo; settings: 30 minutes observation
Method: The test substance was intracisternally administered to male Slc:ddy mice (6 animals per group), and the convulsion and death were monitored for each cage until 30 minutes after the administration. The test substance was dissolved in 5 μl of 1% aqueous solution of lactic acid, and the dose was 5, 15, or 50 μg per animal.

P. vulgaris, 08601 = assay: antibacterial activity (MIC), standard method of Japanese Society of Chemotherapy
E. coli NIHJ = assay: as above
[6] = tested on: S. aureus, 87037 (LVFX-resistant MRSA); assay: as above; settings: S. aureus, 87037 (LVFX-resistant MRSA)
S. marscecens, 10100 = assay: as above
[7] = set-up: species or system guinea pigs (Slc:Hertley); settings: guinea pig, in vivo; for Average score in GPMT: male, Slc:Hertley
Method: Guinea pig maximization test (GPMT) which is a widely accepted model for delayed antigenicity was conducted according to the method of Mugnusson et al. (J. invest. Dermatol., 52, 1969) by using a cutaneous sensitization concentration of 1% and a patch sensitization and induction concentration of 10%. At day 1, the animal was sensitized by cutaneously administering the test substance (the quinolone compounds and the control: vehicle, vaseline) (1% solution in physiological saline+FCA emulsion) at the back of the head of the shaved guinea pigs (7 week old male Slc:Hertley). At day 7, lauryl sodium sulfate (SLC) was applied for stimulus (adjuvant treatment), and on the next day, the test substance coated on a wax paper was patched onto the shaved skin to for sealed sensitization, and after 48 hours (at day 10), the waxed paper was removed. The skin reaction was observed upon the removal. On day 22, the test substance (10%) was patched onto the anterior side of the body for induction, and the induction patching was removed after 24 hours. On the next day (at day 24) and the next day (at day 25), the skin reaction was evaluated according to the description of the document as mentioned above. Erythema and edema were scored, and the case with the total score of 2 or higher was evaluated to be positive with the maximum of the score being 7.

[8] = in vivo; cited from earlier work
[9] = pharmacokinetics in rat (concentration in blood and organs, urine excretion) after oral administration; settings: fasted rat, oral 5 mg/kg;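 note: fasted 7-week-old rats, three per group, tissue sampled up to 8 h post-dose and urine collected over 0–24 h, with conjugates measured after alkaline hydrolysis, concentrations by LC-MS/MS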
Method: as §1, §2, §3, §4, §5

hERG K+ channel [10] = target: T1, hERG K+ channel; assay: hERG-K^+ channel blocking effect
in vivo = settings: female, cynomolgus monkey, po, 5 mg/kg
[11] = female, cynomolgus monkey, in vivo, 5 mg/kg
CYP3A4 = CYP3A4 (Homo sapiens, UniProt P08684); settings: known from the document cited; cited from earlier work
Chain of CYP3A4 (P08684 whole entry): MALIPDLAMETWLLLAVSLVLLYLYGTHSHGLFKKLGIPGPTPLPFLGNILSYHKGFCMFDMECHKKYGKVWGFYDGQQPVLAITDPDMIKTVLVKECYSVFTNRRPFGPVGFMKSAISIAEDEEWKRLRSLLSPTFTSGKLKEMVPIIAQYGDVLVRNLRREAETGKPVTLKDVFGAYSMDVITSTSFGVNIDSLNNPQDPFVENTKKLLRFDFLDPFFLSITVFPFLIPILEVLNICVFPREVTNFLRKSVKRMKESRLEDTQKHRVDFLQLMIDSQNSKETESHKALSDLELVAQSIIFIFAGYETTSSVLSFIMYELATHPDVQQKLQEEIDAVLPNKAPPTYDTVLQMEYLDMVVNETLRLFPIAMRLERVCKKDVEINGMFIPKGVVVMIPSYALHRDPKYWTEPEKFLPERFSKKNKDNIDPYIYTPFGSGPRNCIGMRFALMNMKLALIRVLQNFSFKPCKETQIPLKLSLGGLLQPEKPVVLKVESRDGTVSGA

T1 sequence (Q12809 whole entry): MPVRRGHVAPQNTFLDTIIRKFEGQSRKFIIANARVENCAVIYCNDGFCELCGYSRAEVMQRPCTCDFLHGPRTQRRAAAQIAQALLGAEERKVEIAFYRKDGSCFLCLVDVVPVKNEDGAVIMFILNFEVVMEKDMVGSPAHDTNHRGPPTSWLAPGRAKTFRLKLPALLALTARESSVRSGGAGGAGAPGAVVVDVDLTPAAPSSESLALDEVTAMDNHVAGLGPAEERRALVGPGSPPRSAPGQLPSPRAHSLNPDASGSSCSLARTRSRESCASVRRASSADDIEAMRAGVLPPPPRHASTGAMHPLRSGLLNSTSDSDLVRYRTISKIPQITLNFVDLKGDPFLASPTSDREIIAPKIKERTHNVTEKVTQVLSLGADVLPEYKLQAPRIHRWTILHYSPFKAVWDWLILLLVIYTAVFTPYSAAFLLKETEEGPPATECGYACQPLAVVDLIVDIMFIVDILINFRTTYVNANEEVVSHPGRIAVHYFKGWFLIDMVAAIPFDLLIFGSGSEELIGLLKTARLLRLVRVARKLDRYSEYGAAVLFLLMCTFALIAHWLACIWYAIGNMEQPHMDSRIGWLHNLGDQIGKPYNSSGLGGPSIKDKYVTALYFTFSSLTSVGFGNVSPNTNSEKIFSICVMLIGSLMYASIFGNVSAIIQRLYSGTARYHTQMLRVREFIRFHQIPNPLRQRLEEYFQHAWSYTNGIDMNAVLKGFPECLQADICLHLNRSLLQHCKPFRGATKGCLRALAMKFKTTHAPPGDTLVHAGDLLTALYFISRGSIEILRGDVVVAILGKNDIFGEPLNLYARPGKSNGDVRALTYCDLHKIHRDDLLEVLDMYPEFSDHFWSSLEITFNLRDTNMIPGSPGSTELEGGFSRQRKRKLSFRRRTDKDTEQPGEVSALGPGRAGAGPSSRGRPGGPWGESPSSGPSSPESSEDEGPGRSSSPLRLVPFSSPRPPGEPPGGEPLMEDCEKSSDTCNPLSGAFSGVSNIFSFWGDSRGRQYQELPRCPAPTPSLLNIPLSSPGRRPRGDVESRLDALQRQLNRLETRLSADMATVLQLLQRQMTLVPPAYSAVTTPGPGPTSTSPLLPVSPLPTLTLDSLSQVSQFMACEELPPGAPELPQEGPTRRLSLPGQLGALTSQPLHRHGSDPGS

In the case of `COc1c(N2C[C@@H](C)[C@@](C)(N)C2)c(F)cc2c(=O)c(C(=O)O)cn([C@@H]3C[C@@H]3F)c12` (relative stereo) [Example 3, 7-[(3R*,4R*)-3-Amino-3,4-dimethylpyrrolidin-1-yl]-6-fluoro-1-[(1R,2S)-2-fluorocyclopropyl]-8-methoxy-1,4-dihydro-4-oxoguinoline-3-carboxylic acid], the “Recovery (%) in urine in relation to the amount administered, 0-24 h” value [1] is reported as 24.5%, the “Recovery (%) in urine in relation to the amount administered, Recovery (%) including conjugate” value (“Recovery (%) in urine … (%) including conjugate” below) [1] is reported as 24.7% and the “Serum AUC0-8 h” value [1] is reported as 1850 ng·h/mL. For the same molecule, the “Serum Cmax (0.25 h)” value [1] was 1030 ng/mL, the “Tissue AUC0-8 h, Kidney” value [1] was 17100 ng·h/mL and the “Tissue AUC0-8 h, Liver” value [1] was 15400 ng·h/mL. The “Tissue AUC0-8 h, Lung” value [1] was 7380 ng·h/mL, the “Tissue Cmax, Kidney” value [1] was 8.83 µg/g and the “Tissue Cmax, Liver” value [1] was 9.02 µg/g. For the same molecule, the “Tissue Cmax, Lung” value [1] was 3.47 µg/g, the “micronucleus induction rate versus control, evaluation result” value [2] was “negative” and the MIC (P. aeruginosa, 32104; P. aeruginosa) was 0.39 µg/mL (≈ 0.957 µM). For the same molecule, the MIC [3] was 0.1 µg/mL (≈ 0.245 µM), the MIC (S. aureus, 209P) was 0.025 µg/mL (≈ 0.0614 µM) and the MIC (P. aeruginosa, 32121; P. aeruginosa) was 0.2 µg/mL (≈ 0.491 µM). For the same molecule, the “hERG-K^+ channel blocking effect, Inhibition (%)” value (hERG K+ channel [4]; 30 µM) was 5.3 ± 4.1%, the “hERG-K^+ channel blocking effect, Inhibition (%)” value (hERG K+ channel [4]; 100 µM) was 12.0 ± 4.0% and the “hERG-K^+ channel blocking effect, Inhibition (%)” value (hERG K+ channel [4]; 300 µM) was 22.3 ± 0.7%. For the same molecule, the MIC (E. faecalis, ATCC 19433; E. faecalis) was 0.2 µg/mL (≈ 0.491 µM), the MIC (S. epidermidis, 56500; S. epidermidis) was 0.1 µg/mL (≈ 0.245 µM) and the “convulsant activity (animals affected / 6 animals per group)” value ([5]; 5 μg/mouse intracisternal) was 0/6. For the same molecule, the “convulsant activity (animals affected / 6 animals per group)” value ([5]; 15 μg/mouse intracisternal) was 2/6, the “convulsant activity (animals affected / 6 animals per group)” value ([5]; 50 μg/mouse intracisternal) was 6/6 and the MIC (P. vulgaris, 08601; P. vulgaris) was 0.05 µg/mL (≈ 0.123 µM). The MIC (E. coli NIHJ; E. coli NIHJ) was 0.012 µg/mL (≈ 0.0295 µM), the MIC [6] was 0.78 µg/mL (≈ 1.91 µM) and the MIC (S. marscecens, 10100) was 0.2 µg/mL (≈ 0.491 µM).

In the case of `CO/N=C1\CN(c2nc3c(cc2F)c(=O)c(C(=O)O)cn3C2CC2)CC1CN` (centres unmarked) [Gemifloxacin, gemifloxacin], the “Average score in GPMT” value [7] is given as 6.8 and the “side effect of rash in phase 3 clinical trial” value [8] is given as “frequently develops the side effect of rash”.

In the case of `COc1c(N2C[C@@H]3CCCN[C@@H]3C2)c(F)cc2c(=O)c(C(=O)O)cn(C3CC3)c12` [MFLX, moxifloxacin, reference compound], the “Recovery (%) in urine … (%) including conjugate” value ([1]; male, Crj:CD IGS) is reported as 30.8%, the “Serum Cmax (0.25 h)” value ([1]; male, Crj:CD IGS) is reported as 1490 ng/mL and the “Evaluation in GPMT” value [7] is reported as “Negative”. For the same molecule, the “Average score in GPMT” value [7] was 0, the MIC (P. aeruginosa, 32104; Pseudomonas aeruginosa) was 0.39 µg/mL (≈ 0.972 µM) and the MIC ([3]; Streptococcus pneumoniae) was 0.1 µg/mL (≈ 0.249 µM). For the same molecule, the MIC (S. aureus, 209P; Staphylococcus aureus) was 0.05 µg/mL (≈ 0.125 µM), the MIC (P. aeruginosa, 32121; Pseudomonas aeruginosa) was 0.2 µg/mL (≈ 0.498 µM) and the “Tissue Cmax, Lung” value [9] was 4.69 µg/g. For the same molecule, the MIC (E. faecalis, ATCC 19433; Enterococcus faecalis, ATCC19433, E. faecalis) was 0.2 µg/mL (≈ 0.498 µM), the inhibition at 30 µM (hERG K+ channel [10]) was 33.9 ± 8.3% and the inhibition at 100 µM (hERG K+ channel [10]) was 44.6 ± 10.2%. For the same molecule, the inhibition at 300 µM (hERG K+ channel [10]) was 69.9 ± 8.3%, the AUC(0-t) (in vivo) was 6640 ng·h/mL and the “Recovery (%) in urine … (%) including conjugate” value [11] was 12.2%. For the same molecule, the “Serum Cmax” value ([11]; po) was 1030 ng/mL, the MIC (S. epidermidis, 56500; Staphylococcus epidermidis, 56500, S. epidermidis) was 0.2 µg/mL (≈ 0.498 µM) and the MIC (P. vulgaris, 08601; Proteus vulgaris, 08601, P. vulgaris) was 0.025 µg/mL (≈ 0.0623 µM). For the same molecule, the MIC (E. coli NIHJ; Escherichia coli) was 0.012 µg/mL (≈ 0.0299 µM) and the MIC ([6]; Staphylococcus aureus, MRSA) was 1.56 µg/mL (≈ 3.89 µM).

For `CC[C@H]1OC(=O)[C@H](C)[C@@H](O[C@H]2C[C@@](C)(OC)[C@@H](O)[C@H](C)O2)[C@H](C)[C@@H](O[C@@H]2O[C@H](C)C[C@H](N(C)C)[C@H]2O)[C@](C)(OC)C[C@@H](C)C(=O)[C@H](C)[C@@H](O)[C@]1(C)O` [clarithromycin], the “MBI action for CYP3A4” value (CYP3A4) is given as “exhibit MBI action for CYP3A4”.
